# Results published in patent publication US20220062255A1 (PRILENIA NEUROTHERAPEUTICS LTD., priority 2016, published 2022).
# Values joined by “and” are separate entries in the source; they are usually repeats but may differ in a detail not shown here. Equal entries are not always repeated. Where two headings read alike, the source gives them in different places.
# Columns and labels:
# [1] = biological target: T1, Sigma-1 Receptor (S1R) (Homo sapiens, UniProt Q99720); assay: In-vitro binding assay, Sigma-1 receptor; conditions: Cheng Prusoff; Eurofins Panlabs; source Johnston et al. 2019 and NC20-PHARM-2
# T1 construct: Eurofins Panlabs Taiwan; Ltd. (performed the assay)
# T1 sequence (Q99720 whole entry, species assumed): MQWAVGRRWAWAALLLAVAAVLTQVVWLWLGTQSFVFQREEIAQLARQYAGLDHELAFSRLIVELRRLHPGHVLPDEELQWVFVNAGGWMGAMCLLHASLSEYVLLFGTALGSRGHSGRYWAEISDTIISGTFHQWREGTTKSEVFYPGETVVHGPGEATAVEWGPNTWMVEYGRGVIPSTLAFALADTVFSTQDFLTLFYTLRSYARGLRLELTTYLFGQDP
# Protocol: (§1) In-vitro binding assays performed at Eurofins Panlabs Taiwan. Ltd. Specific ligand binding was determined in the presence of an excess of unlabelled ligand.
# [2] = biological target: T2, Sigma-2 receptor (S2R) (Homo sapiens, UniProt Q5BJF2); assay: In-vitro binding assay, Sigma-2 receptor; conditions: Cheng Prusoff; Eurofins Panlabs; source Johnston et al. 2019 and NC20-PHARM-2
# T2 construct: Eurofins Panlabs Taiwan; Ltd. (performed the assay)
# T2 sequence (Q5BJF2 whole entry, species assumed): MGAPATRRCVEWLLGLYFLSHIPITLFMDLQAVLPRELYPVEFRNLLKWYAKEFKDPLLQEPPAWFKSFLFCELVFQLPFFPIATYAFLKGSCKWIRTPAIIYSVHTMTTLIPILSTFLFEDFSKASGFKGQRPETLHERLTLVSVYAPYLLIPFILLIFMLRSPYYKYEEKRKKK
# Protocol: as §1
# [3] = tested on: BDNF secretion from B104 neuroblastoma cells; assay: BDNF in-situ ELISA, B104 neuroblastoma cells; type: cell-based, rat; conditions: together with pridopidine
# [4] = tested on: laser coagulation (LC) model of experimental glaucoma; conditions: for Area under curve (AUC) of IOP, Total Area: lasered eyes, vehicle 272, contralateral control 185
# Protocol: (§2) Unilateral induction of IOP elevation was performed twice, at day 0 and day 7. IOP increase was induced by 532 nm diode laser (Oculight® TX; Iridex) photocoagulation of episcleral veins, as previously described. IOP was measured with a TonoLab tonometer.
# (§3) IOP was measured at baseline, and after laser photocoagulation on days 1, 4, 7, 8, and 14 (FIG. 10).
# [5] = tested on: retinitis pigmentosa; conditions: periodic oral administration; paper example
# [6] = tested on: Retinal Ganglion Cells (RGCs); conditions: for RGC Loss (%): day 41, OD (OHT) vs OS eye, mean±SEM, DDW control 43±6%; for RGC neuroprotection (%): vs DDW control
# Protocol: In this model, sclerosis of the aqueous veins via retrograde introduction of hypertonic saline increases intraocular pressure (IOP). Hypertonic saline injection (HSI) was performed on day 0 and day 7 into the episcleral veins of the right eye of pigmented Brown Norway. Rats were sedated with ketamine and xylazine (40-80 and 5-10 mg/kg, respectively), kept warm and eyes moist to avoid desiccation during the procedure. Eye surface was treated with erythromycin (0.5%). On Days 0 and 7, hypertonic saline solution (250 μL, NaCl, 1.8-2.0M) was injected into the limbal vascular plexus via different episcleral veins in the OHT eye. For IOP measurement, corneas were anaesthetized with 0.5% proparacaine HCl ophthalmic solution and then IOP measured using a Tono-Pen Vet. Ten repeated readings were averaged from each eye. […] Over the course of the study, animals were clinically evaluated daily, and IOP and body weight measured weekly (FIG. 1).
# The number of RGCs was quantified using immunofluorescent staining for the RGC marker brain-specific homeobox/POU domain protein 3A (Brn-3a), followed by image analysis. Eyes were immediately enucleated following CO2 euthanization and fixed in paraformaldehyde (PFA, 4%) at 4° C. for 24 hours, then dissected in PBS. Retinas were permeabilized in PBS+0.5% Triton X-100 for 15 minutes, frozen at −80° C. for 15 minutes, then rinsed in PBS-0.5% Triton. […] Four radial cuts were made in the retina and it was flat-mounted. Two regions of interest (medial and distal) were acquired in each quadrant (FIG. 3) with fluorescent microscopy, and RGCs counted using ImageJ.
# The percent of RGC loss was calculated by comparing the number of RGC counts per retina in the OD eye to that in the OS eye from the same animal. […] RGC neuroprotection (%) in each animal was calculated as following: [100×((1−RGC Loss (%)/Average RGC Loss (%) in Control group))]. […] Representative images of RGC staining can be seen in FIG. 5.
# [7] = tested on: BDNF secretion from B104 neuroblastoma cells; conditions: in-situ ELISA; Geva, et al. 2016; cited from earlier work
# [8] = tested on: glaucoma; conditions: long-term oral administration; paper example
# [9] = tested on: RGCs; conditions: day 14; for number of RGCs per retinal area, Control eye, Mean: contralateral eye; for RGC Difference % (decrease, lasered vs control eye): vehicle 16.7%
# Protocol: In Wistar rats, the laser coagulation (LC) model of experimental glaucoma was utilized.
# as §2, §3
# On day 14, rats were sacrificed by transcardial perfusion, first with 0.9% NaCl solution, then with 4% PFA in 0.1M phosphate buffer, pH 7.4. Eyes and optic nerves were collected for immunohistochemical analysis. The number of RGCs was quantified using immunofluorescent staining for RNA-binding protein with multiple splicing (RBPMS), an RGC-specific marker, and DAPI nuclear stain followed by stereological analysis of the entire retina (FIG. 11).
# [10] = tested on: dry AMD; conditions: long-term oral administration; paper example
# Source text: The pathological correlation for the decline of visual acuity is the progressive expansion of the degenerated area of the retina (i.e., geographic atrophy), specifically in the macula.
# [11] = tested on: optic nerve axons; conditions: for Number of optic nerve axons, Lasered eye, Mean / Number of optic nerve axons, Control eye, Mean / loss of optic nerve axons, Difference % (LC eye vs control eye): day 14; for Number of optic nerve axons, Control eye, Mean: contralateral eye; for loss of optic nerve axons, Difference % (LC eye vs control eye): vehicle 27.5% in text; for Axonal protection (%): vs vehicle group
# Protocol: Neuroprotective preservation of visual function in glaucoma and other optic neuropathies depends not only on preservation of cell bodies, but also on maintaining connectivity between the eye and the brain. Connectivity is preserved by protecting RGC axons which make up the optic nerve. […] Unilateral induction of IOP elevation was performed twice, at day 0 and day 7. IOP increase was induced by 532 nm diode laser (Oculight® TX; Iridex) photocoagulation of episcleral veins, as previously described. IOP was measured with a TonoLab tonometer.
# IOP was measured at baseline, and after laser photocoagulation on days 1, 4, 7, 8, and 14.
# On day 14, rats were sacrificed by transcardial perfusion, first with 0.9% NaCl solution, then with 4% PFA in 0.1M phosphate buffer, pH 7.4. Eyes and optic nerves were collected for immunohistochemical analysis.
# Optic nerves were postfixed in 4% PFA (in 0.1M phosphate buffer, pH 7.4), placed in 1% osmium, dehydrated in ascending alcohol concentrations, and placed in 1% uranyl acetate in 100% ethanol for 1 hour. Optic nerves were embedded in epoxy resin mixture at 60° C. for 48 hours and 1 μm sections prepared. Axon number was estimated using stereology.
# High IOPs immediately after LC procedure could be associated with retinal ischemia, and low IOP's could indicate failure to establish the model.
# [12] = tested on: wet AMD; conditions: long-term oral administration; paper example
# [13] = tested on: optic neuropathy; conditions: long-term oral administration; paper example
# [14] = tested on: RGCs; conditions: topical to the HSI treated eye, paper example
compound,measurement,setting,value
CCCN1CC[C@@H](c2cccc(S(C)(=O)=O)c2)[C@@H](O)C1 [Compound 4],Ki,[1],2900 nM
same,Ki,[2],> 100000 nM
same,effect with pridopidine on BDNF secretion,[3],synergistic effect
"CCCN1CCC(c2cccc(S(C)(=O)=O)c2)CC1 [Pridopidine, 4-(3-(Methylsulfonyl)phenyl)-1-propylpiperidine]","Area under curve (AUC) of IOP, Total Area",[4]; 3 mg/kg oral daily,255
same,"Area under curve (AUC) of IOP, Total Area",[4]; 30 mg/kg oral daily,289
same,"Area under curve (AUC) of IOP, Total Area",[4]; 60 mg/kg oral daily,295
same,effect on IOP of lasered eyes,"[4]; 3, 30 and 60 mg/kg oral daily, one-way ANOVA, P≥0.26",no difference in the IOP of lasered eyes
same,efficacy in retinitis pigmentosa patients,[5],effective in treating human patients with retinitis pigmentosa
same,RGC Loss (%),[6]; 3 mg/kg oral daily,25±7% and 25%
same,RGC neuroprotection (%),[6]; 3 mg/kg oral daily,42%
same,RGC Loss (%),[6]; 30 mg/kg oral daily,21±6% and 21%
same,RGC neuroprotection (%),[6]; 30 mg/kg oral daily,50%
same,RGC Loss (%),[6]; 60 mg/kg oral daily,7±9% and 7%
same,RGC neuroprotection (%),[6]; 60 mg/kg oral daily,83%
same,BDNF secretion in rat neuroblastoma cells,[7],dose dependent increase in BDNF secretion
same,efficacy in glaucoma patients,[8],effective in treating human patients with glaucoma
same,"number of RGCs per retinal area, Lasered eye, Mean",[9]; 3 mg/kg oral daily,1315
same,"number of RGCs per retinal area, Control eye, Mean",[9]; 3 mg/kg oral daily,1404
same,"RGC Difference % (decrease, lasered vs control eye)",[9]; 3 mg/kg oral daily,5.2%
same,"number of RGCs per retinal area, Lasered eye, Mean",[9]; 30 mg/kg oral daily,1336
same,"number of RGCs per retinal area, Control eye, Mean",[9]; 30 mg/kg oral daily,1444
same,"RGC Difference % (decrease, lasered vs control eye)",[9]; 30 mg/kg oral daily,7.7%
same,"number of RGCs per retinal area, Lasered eye, Mean",[9]; 60 mg/kg oral daily,1198
same,"number of RGCs per retinal area, Control eye, Mean",[9]; 60 mg/kg oral daily,1417
same,"RGC Difference % (decrease, lasered vs control eye)",[9]; 60 mg/kg oral daily,13.9%
same,efficacy in dry AMD patients,[10],effective in treating human patients with dry AMD
same,"Number of optic nerve axons, Lasered eye, Mean",[11]; 3 mg/kg oral daily,358
same,"Number of optic nerve axons, Control eye, Mean",[11]; 3 mg/kg oral daily,394
same,"loss of optic nerve axons, Difference % (LC eye vs control eye)",[11]; 3 mg/kg oral daily,8.6%
same,Axonal protection (%),[11]; 3 mg/kg oral daily,69%
same,"Number of optic nerve axons, Lasered eye, Mean",[11]; 30 mg/kg oral daily,363
same,"Number of optic nerve axons, Control eye, Mean",[11]; 30 mg/kg oral daily,433
same,"loss of optic nerve axons, Difference % (LC eye vs control eye)",[11]; 30 mg/kg oral daily,15%
same,Axonal protection (%),[11]; 30 mg/kg oral daily,45%
same,"Number of optic nerve axons, Lasered eye, Mean",[11]; 60 mg/kg oral daily,365
same,"Number of optic nerve axons, Control eye, Mean",[11]; 60 mg/kg oral daily,395
same,"loss of optic nerve axons, Difference % (LC eye vs control eye)",[11]; 60 mg/kg oral daily,7.24% and 7.6%
same,Axonal protection (%),[11]; 60 mg/kg oral daily,74%
same,efficacy in wet AMD patients,[12],effective in treating human patients with wet AMD
same,efficacy in optic neuropathy patients,[13],effective in treating human patients with optic neuropathy
same,viability of the RGCs and RGC loss,"[14]; groups 2, 3 and 4 vs group 1",significantly increases viability of the RGCs and reduces RCG loss
same,protection of RGC axons,[14],protects RGC axons
CCCN1CCC(O)(c2cccc(S(C)(=O)=O)c2)CC1 [Compound 1],Ki,[1],370 nM
same,Ki,[2],> 100000 nM
same,effect with pridopidine on BDNF secretion,[3],synergistic effect
